Activity calls are given as the source filed them. The calls are words filed in the database; no cut-off is given here.
How the values were obtained:
Acetylcholinesterase [1] = molecular target: T1, Acetylcholinesterase (Homo sapiens, UniProt P22303)
Description: Inhibition of human AChE pre-incubated for 6 mins before ATCI substrate addition and measured after 12 mins by DTNB reagent dependent UV-Vis spectrophotometry based Ellman's method

Cholinesterase = Cholinesterase (Homo sapiens, UniProt P06276)
Description: Inhibition of human BChE pre-incubated for 6 mins before ATCI substrate addition and measured after 12 mins by DTNB reagent dependent UV-Vis spectrophotometry based Ellman's method

[2] = Metal chelating activity against Cu2+ ions assessed as compound-Cu2+ complex formation at 50 uM incubated for 30 mins using CuSO4 by UV-Visible spectrophotometry
[3] = Metal chelating activity against Fe3+ ions assessed as reduction in intrinsic fluorescence of compound at 50 uM incubated for 30 mins using FeCl3 by fluorescence spectrophotometry
Acetylcholinesterase [4] = molecular target: T1, Acetylcholinesterase; assay: Inhibition of human AChE assessed as inhibitor dissociation constant for enzyme-substrate-inhibitor complex pre-incubated for 6 mins before ATCI substrate addition and measured after 12 mins by DTNB reagent dependent Ellman's method based Lineweaver-Burk plot analysis
[5] = Metal chelating activity against Fe3+ ions assessed as compound-Fe3+ complex formation at 50 uM incubated for 30 mins using FeCl3 by UV-Visible spectrophotometry
Acetylcholinesterase [6] = molecular target: T1, Acetylcholinesterase; assay: Inhibition of human AChE assessed as inhibitor dissociation constant for enzyme-inhibitor complex pre-incubated for 6 mins before ATCI substrate addition and measured after 12 mins by DTNB reagent dependent Ellman's method based Lineweaver-Burk plot analysis
[7] = Metal chelating activity against Zn2+ ions assessed as compound-Zn2+ complex formation at 50 uM incubated for 30 mins using ZnCl2 by UV-Visible spectrophotometry
[8] = Metal chelating activity against Fe2+ ions assessed as reduction in intrinsic fluorescence of compound at 50 uM incubated for 30 mins using FeSO4 by fluorescence spectrophotometry
[9] = Metal chelating activity against Cu2+ ions assessed as reduction in intrinsic fluorescence of compound at 50 uM incubated for 30 mins using CuSO4 by fluorescence spectrophotometry
[10] = Metal chelating activity against Cu2+ ions assessed as 1:1 stoichiometry compound-Cu2+ complex formation at 50 uM incubated for 30 mins using CuSO4 by UV-Visible spectrophotometry
[11] = Metal chelating activity against Fe2+ ions assessed as compound-Fe2+ complex formation at 50 uM incubated for 30 mins using FeSO4 by UV-Visible spectrophotometry
[12] = Metal chelating activity against Zn2+ ions assessed as reduction in intrinsic fluorescence of compound at 50 uM incubated for 30 mins using ZnCl2 by fluorescence spectrophotometry
[13] = compound: O=C(CNCc1cc(F)cc(F)c1)Nc1ccc2nc3n(c(=O)c2c1)CCC3; assay: Inhibition of human AChE assessed as ATCI substrate Vmax at 10 nM pre-incubated for 6 mins before ATCI substrate addition and measured after 12 mins by DTNB reagent dependent Ellman's method based Michaelis-Menten kinetics analysis (reference value: […] deltaA/min)
[14] = compound: O=C(CNCc1cc(F)cc(F)c1)Nc1ccc2nc3n(c(=O)c2c1)CCC3; assay: Inhibition of human AChE assessed as ATCI substrate Km at 10 nM pre-incubated for 6 mins before ATCI substrate addition and measured after 12 mins by DTNB reagent dependent Ellman's method based Michaelis-Menten kinetics analysis (reference value: […] mM)
[15] = compound: O=C(CNCc1cc(F)cc(F)c1)Nc1ccc2nc3n(c(=O)c2c1)CCC3; assay: Inhibition of human AChE assessed as ATCI substrate Km at 5 nM pre-incubated for 6 mins before ATCI substrate addition and measured after 12 mins by DTNB reagent dependent Ellman's method based Michaelis-Menten kinetics analysis (reference value: […] mM)
[16] = compound: O=C(CNCc1cc(F)cc(F)c1)Nc1ccc2nc3n(c(=O)c2c1)CCC3; assay: Inhibition of human AChE assessed as ATCI substrate Km at 1 nM pre-incubated for 6 mins before ATCI substrate addition and measured after 12 mins by DTNB reagent dependent Ellman's method based Michaelis-Menten kinetics analysis (reference value: […] mM)
[17] = compound: O=C(CNCc1cc(F)cc(F)c1)Nc1ccc2nc3n(c(=O)c2c1)CCC3; assay: Inhibition of human AChE assessed as ATCI substrate Vmax at 5 nM pre-incubated for 6 mins before ATCI substrate addition and measured after 12 mins by DTNB reagent dependent Ellman's method based Michaelis-Menten kinetics analysis (reference value: […] deltaA/min)
[18] = compound: O=C(CNCc1cc(F)cc(F)c1)Nc1ccc2nc3n(c(=O)c2c1)CCC3; assay: Inhibition of human AChE assessed as ATCI substrate Vmax at 1 nM pre-incubated for 6 mins before ATCI substrate addition and measured after 12 mins by DTNB reagent dependent Ellman's method based Michaelis-Menten kinetics analysis (reference value: […] deltaA/min)

Chain of Cholinesterase (P06276 whole entry): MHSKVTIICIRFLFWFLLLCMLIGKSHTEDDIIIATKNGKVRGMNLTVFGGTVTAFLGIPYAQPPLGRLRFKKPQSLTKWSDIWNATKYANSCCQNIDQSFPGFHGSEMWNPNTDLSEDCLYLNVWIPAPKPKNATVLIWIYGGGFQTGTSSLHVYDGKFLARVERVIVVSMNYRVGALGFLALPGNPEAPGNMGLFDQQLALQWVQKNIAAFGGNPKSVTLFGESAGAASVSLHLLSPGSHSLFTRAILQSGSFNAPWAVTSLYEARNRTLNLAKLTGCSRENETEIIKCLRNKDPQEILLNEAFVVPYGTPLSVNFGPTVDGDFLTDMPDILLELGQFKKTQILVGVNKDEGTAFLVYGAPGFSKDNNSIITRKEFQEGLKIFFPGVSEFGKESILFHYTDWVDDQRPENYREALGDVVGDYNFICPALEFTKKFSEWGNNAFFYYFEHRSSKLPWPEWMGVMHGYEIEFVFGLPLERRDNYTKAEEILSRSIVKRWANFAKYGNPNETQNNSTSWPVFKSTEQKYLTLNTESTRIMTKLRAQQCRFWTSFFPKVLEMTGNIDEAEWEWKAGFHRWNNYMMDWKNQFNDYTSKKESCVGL

Which IC50 (Acetylcholinesterase [1]) does the source give for N#Cc1ccccc1CNCC(=O)Nc1ccc2nc3n(c(=O)c2c1)CCC3 here?
Its IC50 is 16.8 nM.

What about the IC50 (Cholinesterase) of the same molecule?
The IC50 was 29.9 nM.

With CC(C)=CCNCC(=O)Nc1ccc2nc3n(c(=O)c2c1)CCC3 as the molecule, how does the IC50 (Acetylcholinesterase [1]) read?
Its IC50 is 25.9 nM.

What about the IC50 (Cholinesterase) of the same molecule?
Its IC50 is 16.3 nM.

For CCCCNCC(=O)Nc1ccc2nc3n(c(=O)c2c1)CCC3, which IC50 (Acetylcholinesterase [1]) is on record?
Its IC50 is 21.2 nM.

And the IC50 (Cholinesterase)?
The IC50 was 107 nM.

With CCCNCC(=O)Nc1ccc2nc3n(c(=O)c2c1)CCC3 as the molecule, how does the IC50 (Acetylcholinesterase [1]) read?
The IC50 was 310 nM.

What about the IC50 (Cholinesterase) of the same molecule?
The IC50 was 1190 nM.

With O=C(CNCCCc1ccccc1)Nc1ccc2nc3n(c(=O)c2c1)CCC3 as the molecule, how does the IC50 (Acetylcholinesterase [1]) read?
The IC50 was 4.09 nM.

What about the IC50 (Cholinesterase) of the same molecule?
The IC50 was 20.7 nM.

With C#CCNCC(=O)Nc1ccc2nc3n(c(=O)c2c1)CCC3 as the molecule, how does the IC50 (Acetylcholinesterase [1]) read?
Its IC50 is 46.4 nM.

And the IC50 (Cholinesterase)?
The IC50 was 12.4 nM.

Which IC50 (Acetylcholinesterase [1]) does the source give for CCCCCCCCCCCCNCC(=O)Nc1ccc2nc3n(c(=O)c2c1)CCC3 here?
The IC50 was 36.7 nM.

What about the IC50 (Cholinesterase) of the same molecule?
Its IC50 is 26.8 nM.

Which IC50 (Acetylcholinesterase [1]) does the source give for CCCCCCNCC(=O)Nc1ccc2nc3n(c(=O)c2c1)CCC3 here?
Its IC50 is 25.3 nM.

And the IC50 (Cholinesterase)?
The IC50 was 10.5 nM.

Which results are given for O=C(CNCc1ccccc1)Nc1ccc2nc3n(c(=O)c2c1)CCC3?
IC50 (Acetylcholinesterase [1]): 231 nM; IC50 (Cholinesterase): 145 nM

For O=C(CNCc1ccccc1F)Nc1ccc2nc3n(c(=O)c2c1)CCC3, which IC50 (Acetylcholinesterase [1]) is on record?
Its IC50 is 528 nM.

And the IC50 (Cholinesterase)?
The IC50 was 108 nM.

Which IC50 (Acetylcholinesterase [1]) does the source give for Cc1ccccc1CNCC(=O)Nc1ccc2nc3n(c(=O)c2c1)CCC3 here?
The IC50 was 119 nM.

What about the IC50 (Cholinesterase) of the same molecule?
Its IC50 is 107 nM.

Which results are given for CCNCC(=O)Nc1ccc2nc3n(c(=O)c2c1)CCC3?
IC50 (Acetylcholinesterase [1]): 557 nM; IC50 (Cholinesterase): 1000 nM

Which IC50 (Acetylcholinesterase [1]) does the source give for O=c1c2ccccc2nc2n1CCC2 [DEOXYVASICINONE] here?
Its IC50 is 62500 nM.

And the IC50 (Cholinesterase)?
The IC50 was 45100 nM.

With O=C(CNCc1ccccc1[N+](=O)[O-])Nc1ccc2nc3n(c(=O)c2c1)CCC3 as the molecule, how does the IC50 (Acetylcholinesterase [1]) read?
The IC50 was 30.7 nM.

What about the IC50 (Cholinesterase) of the same molecule?
The IC50 was 103 nM.

Which IC50 (Acetylcholinesterase [1]) does the source give for C=CCCNCC(=O)Nc1ccc2nc3n(c(=O)c2c1)CCC3 here?
Its IC50 is 13.3 nM.

And the IC50 (Cholinesterase)?
The IC50 was 81.5 nM.

What does the source list for CCCCCCCCCCCCCCCCNCC(=O)Nc1ccc2nc3n(c(=O)c2c1)CCC3?
IC50 (Acetylcholinesterase [1]): 5.31 nM; IC50 (Cholinesterase): 4.35 nM

For CCCCCCCCCCNCC(=O)Nc1ccc2nc3n(c(=O)c2c1)CCC3, which IC50 (Acetylcholinesterase [1]) is on record?
Its IC50 is 24.1 nM.

What about the IC50 (Cholinesterase) of the same molecule?
Its IC50 is 37.2 nM.

Which results are given for C=CCNCC(=O)Nc1ccc2nc3n(c(=O)c2c1)CCC3?
IC50 (Acetylcholinesterase [1]): 66.6 nM; IC50 (Cholinesterase): 16.6 nM

Which IC50 (Acetylcholinesterase [1]) does the source give for CCCCCCCCNCC(=O)Nc1ccc2nc3n(c(=O)c2c1)CCC3 here?
The IC50 was 10.6 nM.

And the IC50 (Cholinesterase)?
The IC50 was 45.7 nM.

For O=C(CNCc1cc(F)cc(F)c1)Nc1ccc2nc3n(c(=O)c2c1)CCC3, which IC50 (Acetylcholinesterase [1]) is on record?
The IC50 was 7.61 nM.

And the Activity [2]?
Its Activity is “Active”.

And the Activity [3]?
The Activity was “Active”.

What about the Ki (Acetylcholinesterase [4]) of the same molecule?
Its Ki is 15.8 nM.

And the Activity [5]?
Its Activity is “Active”.

And the Ki (Acetylcholinesterase [6])?
Its Ki is 9.85 nM.

What about the Activity [7] of the same molecule?
Its Activity is “inactive”.

What about the Activity [8] of the same molecule?
Its Activity is “Active”.

And the Activity [9]?
The Activity was “Active”.

What about the IC50 (Cholinesterase) of the same molecule?
Its IC50 is 2.35 nM.

And the Activity [10]?
Its Activity is “Active”.

And the Activity [11]?
Its Activity is “Active”.

And the Activity [12]?
Its Activity is “inactive”.

B1: Acetylcholinesterase (Homo sapiens), P22303 (protein)
chain: MRPPQCLLHTPSLASPLLLLLLWLLGGGVGAEGREDAELLVTVRGGRLRGIRLKTPGGPVSAFLGIPFAEPPMGPRRFLPPEPKQPWSGVVDATTFQSVCYQYVDTLYPGFEGTEMWNPNRELSEDCLYLNVWTPYPRPTSPTPVLVWIYGGGFYSGASSLDVYDGRFLVQAERTVLVSMNYRVGAFGFLALPGSREAPGNVGLLDQRLALQWVQENVAAFGGDPTSVTLFGESAGAASVGMHLLSPPSRGLFHRAVLQSGAPNGPWATVGMGEARRRATQLAHLVGCPPGGTGGNDTELVACLRTRPAQVLVNHEWHVLPQESVFRFSFVPVVDGDFLSDTPEALINAGDFHGLQVLVGVVKDEGSYFLVYGAPGFSKDNESLISRAEFLAGVRVGVPQVSDLAAEAVVLHYTDWLHPEDPARLREALSDVVGDHNVVCPVAQLAGRLAAQGARVYAYVFEHRASTLSWPLWMGVPHGYEIEFIFGIPLDPSRNYTAEEKIFAQRLMRYWANFARTGDPNEPRDPKAPQWPPYTAGAQQYVSLDLRPLEVRRGLRAQACAFWNRFLPKLLSATDTLDEAERQWKAEFHRWSSYMVHWKNQFDHYSKQDRCSDL
Which Vmax [13] does the source give for B1 here?
The Vmax was 0.152 deltaA/min.

What about the Km [14] of the same molecule?
Its Km is 434 µM.

What about the Km [15] of the same molecule?
Its Km is 369 µM.

And the Km [16]?
Its Km is 329 µM.

What about the Vmax [17] of the same molecule?
Its Vmax is 0.19 deltaA/min.

What about the Vmax [18] of the same molecule?
Its Vmax is 0.212 deltaA/min.

Source: ChEMBL document CHEMBL4190343, “Novel deoxyvasicinone derivatives as potent multitarget-directed ligands for the treatment of Alzheimer's disease: Design, synthesis, and biological evaluation” (Eur J Med Chem, 2017)
